# Like-named read-outs stand apart in the source and are kept apart here.
# Tests used:
# [1] = system: nymphs of cowpea aphid (Aphis craccivora); test: Leaf dipping insecticidal bioassay, nymphs of cowpea aphid; format: in vivo; settings: 24 h; for LC50: Aphis craccivora, foliar; for Toxic ratio: Acetamiprid's LC50 / the compound's LC50
# Protocol: (§1) The original batches of cowpea aphid insects were collected from pest's laboratory, Plant Protection Research Institute, Agricultural Research Center. The target compounds were screened for their insecticidal activity towards nymphs and adults of cowpea aphid.
# (§2) The insecticidal activities of compounds 4 and 5 were measured by using leaf dipping method under the same reported laboratory conditions. Five concentrations of compound 4, 5 and 0.1% Tween-80 as a surfactant were used. Nearly the same size 30 nymphs and 30 adults of cowpea aphid insects were used for dipping for 10 second in every concentration of each compound (repeat three times). Insects which tested were allowed to stand to dry at room temperature for about half an hour. In the control experiment, the insects were dunked in distilled water and 0.1% tween-80 only. These applications were carried out at 5% relative humidity, and at a temperature of 25° C. After the used insect had dried, they were transferred to glass jars containing water. With a new binocular microscope, the aphid mortality was taken after 24 hrs of treatment. Any aphid that was unable to move was considered dead. The LC50 values used to evaluate the insecticidal activity were estimated by probit analysis.
# [2] = system: adults of cowpea aphid (Aphis craccivora); test: Leaf dipping insecticidal bioassay, adults of cowpea aphid; format: in vivo; settings: 24 h; for LC50: Aphis craccivora, foliar; for Toxic ratio: Acetamiprid's LC50 / the compound's LC50
# Protocol: as §1, §2
# [3] = nymphs, after 24 h of treatment, leaf dipping, probit analysis, read-out: LC50
# [4] = adults, after 24 h of treatment, leaf dipping, probit analysis, read-out: LC50
smiles,measurement,setting,value
"C/C(=N\C#N)N(C)Cc1ccc(Cl)nc1 [Acetamiprid, acetamiprid, reference compound]",LC50,[1],0.045 µg/mL
same,Toxic ratio,[1]; nymphs,1
same,LC50,[2],0.267 µg/mL
same,Toxic ratio,[2]; adults,1
"CCOc1nc(-c2ccccc2)cc(-c2cccnc2)c1C#N [Compound 4, 2′-Ethoxy-6′-phenyl[3,4′-bipyridine]-3′-carbonitrile]",LC50,[1]; [3],~0.0781 µg/mL
same,Toxic ratio,[1]; nymphs,0.576
same,LC50,[2]; [4],~1.3 µg/mL
same,Toxic ratio,[2]; adults,0.205
"COc1nc(-c2ccccc2)cc(-c2cccnc2)c1C#N [Compound 5, 2′-Methoxy-6′-phenyl[3,4′-bipyridine]-3′-carbonitrile]",LC50,[1]; [3],~0.0842 µg/mL
same,Toxic ratio,[1]; nymphs,0.0534
same,LC50,[2]; [4],1.4 µg/mL
same,Toxic ratio,[2]; adults,0.190
